Measurements taken from PMC7933434, “Entropy-driven binding of gut bacterial β-glucuronidase inhibitors ameliorates irinotecan-induced toxicity” (Communications Biology, 2021).
Values joined by “and” are separate entries in the source; they are usually repeats but may differ in a detail not shown here. Identical values can stand only once. “Also recorded” adds a separate entry of the source.

Experiments:
[1] = target: LgGUS (Lactobacillus gasseri GUS) (Lactobacillus gasseri, UniProt Q9AHJ8); assay: GUS inhibition assay, hydrolysis of 4-methylumbelliferyl-β-glucuronide, LgGUS; type: biochemical; design: GUS activity (hydrolysis rate of MUG) / 1/v: unit not given here
[2] = target: BdGUS (Bifidobacterium dentium GUS) (Bifidobacterium dentium, UniProt D2Q7B1); assay: biochemical; design: GUS activity (hydrolysis rate of MUG) / 1/v: unit not given here
[3] = target: EcGUS (Escherichia coli, UniProt P05804); assay: Isothermal titration calorimetry, EcGUS; type: binding; conditions: EcGUS
[4] = [Inhibitor 3] = 1 μM, [MUG] 0.075 mM
[5] = [Inhibitor 3] = 1 μM, [MUG] 0.15 mM
[6] = [Inhibitor 3] = 1 μM, [MUG] 0.3 mM
[7] = [Inhibitor 3] = 2 μM, [MUG] 0.0375 mM
[8] = [Inhibitor 3] = 2 μM, [MUG] 0.075 mM
[9] = [Inhibitor 3] = 2 μM, [MUG] 0.15 mM
[10] = [Inhibitor 3] = 2 μM, [MUG] 0.3 mM
[11] = [Inhibitor 3] = 4 μM, [MUG] 0.0375 mM
[12] = [Inhibitor 3] = 4 μM, [MUG] 0.075 mM
[13] = [Inhibitor 3] = 4 μM, [MUG] 0.15 mM
[14] = [Inhibitor 3] = 4 μM, [MUG] 0.3 mM
[15] = [Inhibitor 3] = 0.25 μM, [MUG] 0.375 mM
[16] = [Inhibitor 3] = 0.25 μM, [MUG] 0.75 mM
[17] = [Inhibitor 3] = 0.25 μM, [MUG] 1.5 mM
[18] = [Inhibitor 3] = 0.25 μM, [MUG] 3 mM
[19] = [Inhibitor 3] = 0.5 μM, [MUG] 0.375 mM
[20] = [Inhibitor 3] = 0.5 μM, [MUG] 0.75 mM
[21] = [Inhibitor 3] = 0.5 μM, [MUG] 1.5 mM
[22] = [Inhibitor 3] = 0.5 μM, [MUG] 3 mM
[23] = [Inhibitor 3] = 1 μM, [MUG] 0.375 mM
[24] = [Inhibitor 3] = 1 μM, [MUG] 0.75 mM
[25] = [Inhibitor 3] = 1 μM, [MUG] 1.5 mM
[26] = [Inhibitor 3] = 1 μM, [MUG] 3 mM
[27] = [Inhibitor 3] = 2 μM, [MUG] 0.375 mM
[28] = [Inhibitor 3] = 2 μM, [MUG] 0.75 mM
[29] = [Inhibitor 3] = 2 μM, [MUG] 1.5 mM
[30] = [Inhibitor 3] = 2 μM, [MUG] 3 mM
[31] = phosphate buffer (250 mM NaCl, 20 mM KH2PO4, 100 mM Na2HPO4, pH 8.0), 298 K

Sequence of LgGUS (Lactobacillus gasseri GUS) (Q9AHJ8 1-598): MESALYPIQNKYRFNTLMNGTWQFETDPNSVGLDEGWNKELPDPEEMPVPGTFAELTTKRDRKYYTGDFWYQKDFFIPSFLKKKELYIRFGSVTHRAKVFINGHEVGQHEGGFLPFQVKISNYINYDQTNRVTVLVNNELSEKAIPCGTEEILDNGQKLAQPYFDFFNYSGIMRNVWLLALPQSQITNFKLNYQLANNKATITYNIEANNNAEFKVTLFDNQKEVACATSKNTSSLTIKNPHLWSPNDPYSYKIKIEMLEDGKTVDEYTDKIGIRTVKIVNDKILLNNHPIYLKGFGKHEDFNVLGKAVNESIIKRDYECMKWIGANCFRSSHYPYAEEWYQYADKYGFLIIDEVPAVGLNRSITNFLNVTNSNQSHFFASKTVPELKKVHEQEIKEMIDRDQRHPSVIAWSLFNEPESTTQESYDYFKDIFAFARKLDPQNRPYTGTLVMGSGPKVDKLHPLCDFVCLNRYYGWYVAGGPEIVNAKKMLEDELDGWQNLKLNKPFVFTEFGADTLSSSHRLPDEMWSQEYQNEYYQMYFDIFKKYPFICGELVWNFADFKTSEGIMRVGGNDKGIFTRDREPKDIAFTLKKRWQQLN
Sequence of EcGUS (P05804 whole entry): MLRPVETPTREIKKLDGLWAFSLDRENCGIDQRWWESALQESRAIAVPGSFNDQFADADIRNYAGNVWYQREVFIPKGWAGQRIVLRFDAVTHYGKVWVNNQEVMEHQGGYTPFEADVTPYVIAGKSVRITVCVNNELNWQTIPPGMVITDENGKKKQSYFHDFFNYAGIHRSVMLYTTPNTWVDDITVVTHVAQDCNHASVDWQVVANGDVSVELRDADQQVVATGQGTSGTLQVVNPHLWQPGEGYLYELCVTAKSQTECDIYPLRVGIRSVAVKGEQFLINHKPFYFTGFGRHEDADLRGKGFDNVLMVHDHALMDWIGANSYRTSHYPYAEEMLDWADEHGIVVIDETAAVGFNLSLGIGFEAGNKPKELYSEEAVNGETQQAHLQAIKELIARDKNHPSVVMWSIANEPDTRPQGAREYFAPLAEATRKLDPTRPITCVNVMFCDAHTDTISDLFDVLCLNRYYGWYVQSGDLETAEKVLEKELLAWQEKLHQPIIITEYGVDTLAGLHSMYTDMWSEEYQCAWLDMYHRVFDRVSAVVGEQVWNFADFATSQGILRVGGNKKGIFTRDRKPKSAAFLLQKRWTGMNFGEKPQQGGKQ
Sequence of BdGUS (Bifidobacterium dentium GUS) (D2Q7B1 1-668): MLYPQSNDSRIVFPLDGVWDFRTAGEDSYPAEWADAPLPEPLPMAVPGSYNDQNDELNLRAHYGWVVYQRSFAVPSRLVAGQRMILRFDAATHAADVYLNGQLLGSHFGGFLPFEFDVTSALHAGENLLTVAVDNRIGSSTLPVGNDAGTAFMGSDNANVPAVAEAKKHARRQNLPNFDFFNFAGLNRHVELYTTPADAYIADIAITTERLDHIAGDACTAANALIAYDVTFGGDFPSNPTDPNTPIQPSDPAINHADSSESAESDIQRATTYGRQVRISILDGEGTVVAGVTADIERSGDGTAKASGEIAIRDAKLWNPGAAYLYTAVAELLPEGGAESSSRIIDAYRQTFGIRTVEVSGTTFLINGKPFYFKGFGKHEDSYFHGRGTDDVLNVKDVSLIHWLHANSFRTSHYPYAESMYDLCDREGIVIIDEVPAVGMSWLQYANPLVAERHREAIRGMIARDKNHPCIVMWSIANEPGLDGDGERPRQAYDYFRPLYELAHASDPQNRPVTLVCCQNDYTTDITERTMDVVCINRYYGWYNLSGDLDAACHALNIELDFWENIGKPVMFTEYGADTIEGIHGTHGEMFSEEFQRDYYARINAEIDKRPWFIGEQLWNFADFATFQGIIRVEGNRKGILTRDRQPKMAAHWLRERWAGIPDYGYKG

CCCCCC[C@@H]1NC[C@@H](O)[C@H](O)[C@H]1C(=O)O [Inhibitor 3, C6-hexyl UIFG]
1/v [1, 4]: 0.3424 and 0.3184 and 0.351 | GUS activity (hydrolysis rate of MUG) [1, 4]: 3628.61 and 3898.42 and 3540.08 | 1/v [1, 5]: 0.2292 and 0.221 and 0.234 | GUS activity (hydrolysis rate of MUG) [1, 5]: 5401.09 and 5599.95 and 5290.95 | 1/v [1, 6]: 0.17 and 0.1709 and 0.1804 | GUS activity (hydrolysis rate of MUG) [1, 6]: 7266.77 and 7229.36 and 6851.15 | 1/v [1, 7]: 0.7678 and 0.7232 and 0.846 | GUS activity (hydrolysis rate of MUG) [1, 7]: 1640.4 and 1739.08 and 1492.59 | 1/v [1, 8]: 0.3881 and 0.4343 and 0.4681 | GUS activity (hydrolysis rate of MUG) [1, 8]: 3205.84 and 2869.39 and 2664.86 | 1/v [1, 9]: 0.2765 and 0.2621 and 0.3029 | GUS activity (hydrolysis rate of MUG) [1, 9]: 4483.64 and 4728.12 and 4096.06 | 1/v [1, 10]: 0.1941 and 0.1876 and 0.2109 | GUS activity (hydrolysis rate of MUG) [1, 10]: 6369.22 and 6587.98 and 5864.23 | 1/v [1, 11]: 1.38 and 1.418 and 1.362 | GUS activity (hydrolysis rate of MUG) [1, 11]: 930.888 and 906.847 and 942.511 | 1/v [1, 12]: 0.7054 and 0.7651 and 0.7316 | GUS activity (hydrolysis rate of MUG) [1, 12]: 1782.13 and 1646.05 and 1719.56 | 1/v [1, 13]: 0.4164 and 0.4204 and 0.422 | GUS activity (hydrolysis rate of MUG) [1, 13]: 2991.08 and 2963 and 2951.69 | 1/v [1, 14]: 0.2731 and 0.2793 (2×) | GUS activity (hydrolysis rate of MUG) [1, 14]: 4539.61 and 4438.44 and 4439.48 | Ki ([2]; BdGUS, 50 mM HEPES pH 7.5, 37 °C): 860 ± 200 nM | 1/v [2, 15]: 0.8098 and 0.8436 and 0.8112 | GUS activity (hydrolysis rate of MUG) [2, 15]: 0.2757 and 0.2647 and 0.2753 | 1/v [2, 16]: 0.4851 and 0.501 and 0.4979 | GUS activity (hydrolysis rate of MUG) [2, 16]: 0.4603 and 0.4457 and 0.4485 | 1/v [2, 17]: 0.3326 and 0.3553 and 0.3441 | GUS activity (hydrolysis rate of MUG) [2, 17]: 0.6714 and 0.6286 and 0.649 | 1/v [2, 18]: 0.2934 and 0.2936 and 0.2832 | GUS activity (hydrolysis rate of MUG) [2, 18]: 0.761 and 0.7606 and 0.7885 | 1/v [2, 19]: 1.013 and 1.039 and 0.9379 | GUS activity (hydrolysis rate of MUG) [2, 19]: 0.2203 and 0.2148 and 0.2381 | 1/v [2, 20]: 0.5713 and 0.5847 and 0.5765 | GUS activity (hydrolysis rate of MUG) [2, 20]: 0.3909 and 0.3819 and 0.3873 | 1/v [2, 21]: 0.386 and 0.3868 and 0.3898 | GUS activity (hydrolysis rate of MUG) [2, 21]: 0.5784 and 0.5773 and 0.5728 | 1/v [2, 22]: 0.2997 and 0.3073 and 0.3039 | GUS activity (hydrolysis rate of MUG) [2, 22]: 0.7451 and 0.7267 and 0.7347 | 1/v [2, 23]: 1.333 and 1.373 and 1.236 | GUS activity (hydrolysis rate of MUG) [2, 23]: 0.1676 and 0.1627 and 0.1806 | 1/v [2, 24]: 0.7658 and 0.7424 and 0.7331 | GUS activity (hydrolysis rate of MUG) [2, 24]: 0.2916 and 0.3008 and 0.3046 | 1/v [2, 25]: 0.4723 and 0.4867 and 0.4608 | GUS activity (hydrolysis rate of MUG) [2, 25]: 0.4727 and 0.4588 and 0.4846 | 1/v [2, 26]: 0.3528 and 0.337 and 0.3348 | GUS activity (hydrolysis rate of MUG) [2, 26]: 0.6328 and 0.6626 and 0.667 | 1/v [2, 27]: 1.957 and 1.888 and 1.908 | GUS activity (hydrolysis rate of MUG) [2, 27]: 0.1141 and 0.1183 and 0.117 | 1/v [2, 28]: 1.031 and 0.9985 and 1.0212 | GUS activity (hydrolysis rate of MUG) [2, 28]: 0.2167 and 0.2236 and 0.2187 | 1/v [2, 29]: 0.6082 and 0.615 and 0.6155 | GUS activity (hydrolysis rate of MUG) [2, 29]: 0.3672 and 0.3631 and 0.3628 | 1/v [2, 30]: 0.4308 and 0.4219 and 0.4288 | GUS activity (hydrolysis rate of MUG) [2, 30]: 0.5183 and 0.5293 and 0.5208 | ΔH ([3]; Tris buffer (250 mM NaCl, 20 mM Tris, pH 8.0), 298 K): Essentially no enthalpy change was evident; also recorded: close to zero | ΔΔH relative to 2 (ΔΔH2–3, ΔΔH2–4) ([3]; phosphate buffer): +0.04 kcal mol^−1 | –TΔΔS relative to 2 (–TΔΔS2–3, –TΔΔS2–4) ([3]; phosphate buffer): –1.32 kcal mol^−1 | Kd [3, 31]: 30 ± 10 nM | ΔG [3, 31]: –10.24 ± 0.18 kcal/mol | ΔH [3, 31]: –3.95 ± 0.06 kcal/mol | —TΔS [3, 31]: –6.29 ± 0.13 kcal/mol
